Here are results for three substances from article PMC3230782 (Peptides, 2011).

In data set [1] the test system is estrogen-stimulated growth of the immature mouse uterus. Put plainly: immature mouse uterine growth inhibition assay. It is filed as in vivo, mouse (Swiss Webster female). To be noted: for effect on the growth inhibition activity of AFPep when combined: combination with AFPep (Figure 2A, 2C); for dose-response behaviour of inhibition of estrogen-stimulated uterine growth: peptide alone, range of doses i.p. (Figure 1).

Data set [2] shares this test system. The following applies: 30 (EMTPVNPG), 29 (AFPep); cited from earlier work.
For data set [3] the following is noted: earlier work; 30 (EMTPVNPG); 29 (AFPep); cited from earlier work.

For cyclo[EKTOVNOGN] FS (lariat or depsi), in data set [1], the “effect on the growth inhibition activity of AFPep when combined” value was “decreased the activity of AFPep” and the “dose-response behaviour of inhibition of estrogen-stimulated uterine growth” value was “little activity at any dose”.
In the case of cyclo[EKTOVGOGN] FS (lariat or depsi), in data set [1], the “effect on the growth inhibition activity of AFPep when combined” value is “enhanced the activity of AFPep” and the “dose-response behaviour of inhibition of estrogen-stimulated uterine growth” value is recorded as “no activity at any dose”.
On to EMTPVNPG, for which the “dose-response behaviour in anti-estrotrophic assay (earlier work)” value in data set [2] is listed as “biphasic dose-response curve”. Further, the shelf life entry in data set [3] is given as “very short shelf life”.
